Each block holds one molecule with its values, some of them ahead of it.
Columns and labels:
Type in all cases: binding
[1] = target: T1, Quinolinate phosphoribosyltransferase (HsQPRT) (Homo sapiens, UniProt Q15274); experiment: co-crystal structure ([…] Å)
T1 construct: gene QPRT; full-length HsQPRT (residues 1–297), hexamer

[2] = target: T2, Quinolinate phosphoribosyltransferase (HsQPRT) NΔ9 mutant (Homo sapiens, UniProt Q15274, NΔ9); experiment: ITC
T2 construct: gene QPRT; NΔ9, N-terminal truncated (helix α1 removed), dimer

[3] = target: T1, Quinolinate phosphoribosyltransferase (HsQPRT); experiment: ITC and crystal structure ([…] Å)
[4] = target: T1, Quinolinate phosphoribosyltransferase (HsQPRT); experiment: ITC

T1 sequence (Q15274 whole entry, the tested form may be a part): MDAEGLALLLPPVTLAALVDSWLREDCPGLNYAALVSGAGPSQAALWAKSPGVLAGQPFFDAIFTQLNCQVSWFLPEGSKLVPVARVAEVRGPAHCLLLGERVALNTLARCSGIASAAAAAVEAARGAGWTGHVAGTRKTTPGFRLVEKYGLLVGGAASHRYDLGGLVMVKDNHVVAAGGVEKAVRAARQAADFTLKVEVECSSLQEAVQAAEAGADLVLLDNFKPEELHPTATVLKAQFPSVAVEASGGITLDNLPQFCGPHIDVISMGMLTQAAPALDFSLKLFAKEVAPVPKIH
T2 sequence (Q15274 10-297, stated change not applied): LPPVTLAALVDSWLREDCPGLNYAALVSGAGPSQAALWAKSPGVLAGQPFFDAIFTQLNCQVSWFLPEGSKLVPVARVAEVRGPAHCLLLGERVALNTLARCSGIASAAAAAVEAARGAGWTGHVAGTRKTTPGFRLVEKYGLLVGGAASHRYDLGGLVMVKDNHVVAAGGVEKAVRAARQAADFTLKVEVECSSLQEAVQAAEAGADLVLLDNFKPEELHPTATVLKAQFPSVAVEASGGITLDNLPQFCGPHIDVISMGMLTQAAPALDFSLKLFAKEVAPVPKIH

SMILES: O=C(O)c1ccc[n+]([C@@H]2O[C@H](COP(=O)([O-])O)[C@@H](O)[C@H]2O)c1 [NAMN, nicotinic acid mononucleotide]
co-crystal structure (2.6 Å) [1]: clear density for two loops (loops L and O) and the substrate molecules (QA and NAMN) bound to the protein

Kd [2]: 401 ± 56 µM
Kd [3]: 4.8 ± 0.4 µM
SMILES: O=C(O)c1cccnc1C(=O)O [QA, quinolinic acid]

Kd [4]: 5.2 ± 0.2 µM
SMILES: O=C(O)c1ccccc1C(=O)O [phthalic acid]
